Here are results for twelve molecules from article PMC9968196, “Synthesis, Characterization, and Biological Evaluation of Meldrum’s Acid Derivatives: Dual Activity and Molecular Docking Study” (Pharmaceuticals, 2023).

Series [1] concerns Escherichia coli (ATCC 25922). The experiment in a line: Antimicrobial activity, broth microdilution MIC with resazurin. The class given is cell-based. Conditions: ATCC25922, E. coli, 37 °C, 24 h, average of three independent experiments. Here is the method:
(§1) The following strains of bacteria were used as test organisms in this study: Staphylococcus aureus (ATCC 25923), Bacillus subtilis (ATCC 6633), Bacillus cereus (ATCC 10987), and Escherichia coli (ATCC 25922). All the bacteria used were obtained from the American Type Culture Collection (ATCC). Cultures were stored at 4 °C and subcultured every 15 days. The minimal inhibitory concentration (MIC) was determined by the broth microdilution method using 96-well micro-titer plates. A series of dilutions of the tested compounds was used in the experiment against every microorganism. The starting solutions of tested compounds were obtained by measuring off a certain quantity of the compounds and dissolving it in 5% DMSO. The MIC was determined with resazurin. The inoculated plates were incubated at 37 °C for 24 h. Resazurin is an oxidation–reduction indicator used for the evaluation of microbial growth. It is a blue non-fluorescent dye that becomes pink and fluorescent when reduced to resorufin by oxidoreductases within viable cells. The boundary dilution without any changing in color of resazurin was defined as the MIC for the tested microorganism at a given concentration. As a positive control of growth inhibition, streptomycin was used. A 5% DMSO solution was used as a negative control for the influence of the solvents.

Series [2] concerns human cervical adenocarcinoma HeLa. The experiment in a line: Cytotoxicity, MTT assay. In kind it is cell-based. Conditions: for IC50: Homo sapiens, HeLa, 72 h; for selectivity index (SI): HeLa cells versus MRC-5. The method, then: (§2) Cell line cells were obtained from the American Type Culture Collection. Human cervical adenocarcinoma HeLa, human chronic myelogenous leukemia K562, non-small cell lung carcinoma A549, human colon carcinoma LS174, pancreatic carcinoma PaCa-2, and normal human lung fibroblast MRC-5 cell lines were grown in RPMI-1640 medium with 10% fetal bovine serum, L-glutamine, and penicillin–streptomycin solution. Cells were plated into the 96-well cell culture plates. Cells were incubated at 37 °C in CO2 incubator. Adherent cell lines were incubated for 20 h before addition of tested compounds. Two hours before addition of compounds, K562 cells were seeded into 96-well plates. The tested compounds were applied at five different concentrations ranging from 10 to 300 µM for 72 h. Thereafter, the survival of cells was determined by MTT assay in accordance with the protocol established by Mosmann and Ohno and Abe. The solution of MTT was added to blank and cell samples. The plates were incubated for 5 h at 37 °C, and then 10% solution of sodium dodecyl sulfate was added to the wells. The absorbance was measured at 570 nm using Thermo Scientific Multiskan EX plate reader. Three independent experiments were performed.

Series [3] has as its system human chronic myelogenous leukemia K562. The experiment in a line: Cytotoxicity, MTT assay. The class given is cell-based. The conditions noted are these: 72 h. Here is the method:
as §2

In series [4] the test system is human colon carcinoma LS174. The experiment in a line: Cytotoxicity, MTT assay. The class given is cell-based. Here is the method:
as §2

For series [5], the system named is pancreatic carcinoma PaCa-2. The experiment in a line: Cytotoxicity, MTT assay. The conditions noted are these: Homo sapiens, 72 h. The class given is cell-based. Here is the method:
as §2

The test system of series [6] is non-small cell lung carcinoma A549. The experiment in a line: Cytotoxicity, MTT assay. In kind it is cell-based, human. Conditions: for IC50: Homo sapiens, A549, 72 h; for selectivity index (SI): A549 cells versus MRC-5. The method, then:
as §2

Series [7] in a line: Cytotoxicity, MTT assay, normal cells. Conditions: human, MRC-5 normal lung fibroblast cells; MRC-5 normal fibroblast; 72 h. In kind it is cell-based, human. The method, then: as §2
In series [8] the test system is Bacillus cereus (ATCC 10987). Description: Antimicrobial activity, broth microdilution MIC with resazurin. The conditions noted are these: ATCC10987, B. cereus, 37 °C, 24 h, average of three independent experiments. In kind it is cell-based. Here is the method: as §1
Series [9] has as its system Bacillus subtilis (ATCC 6633). The description is as above. The class given is cell-based. The conditions noted are these: ATCC6633, B. subtilis, 37 °C, 24 h, average of three independent experiments. Here is the method: as §1
For series [10], the system named is Staphylococcus aureus (ATCC 25923). The series is described as above. In kind it is cell-based. Conditions: ATCC25923, S. aureus, 37 °C, 24 h, average of three independent experiments. The method, then: as §1
The test system of series [11] is normal human lung fibroblast MRC-5. The experiment in a line: Cytotoxicity, MTT assay, normal cells. In kind it is cell-based. The conditions noted are these: MRC-5. Here is the method:
as §2

On the set-up of series [12]: method as in PMID 34019615, PMID 20000793. Conditions: cited from earlier work.
Another series has as its system Gyrase B of E. Coli. Also on record: method as in PMID 31257079. The conditions noted are these: read-out: inhibitory activity IC50; cited from earlier work.

In brackets after ≈: the same amount, converted by molar mass.

Consider `COc1cc(C=C2C(=O)OC(C)(C)OC2=O)cc([N+](=O)[O-])c1O` [3a, 5-(4′-hydroxy-3′-methoxy-5′-nitrobenzylidene)-2,2-dimethyl-1,3-dioxane-4,6-dione], for which 115 µM (≈ 37.3 µg/mL) was the least that counted as inhibitory in series [1] (MIC). Also, the 50% inhibitory concentration (IC50) in [2] was 126 ± 1.45 µM; in series [3], 151 ± 3.47 µM; in series [4] (Homo sapiens, LS174, 72 h), above 200 µM; in [5], above 200 µM; in series [6] it was above 200 µM. Moreover, the IC50 at 72 h in series [7] was above 200 µM.
On to `CCCCCCCCOc1ccc(C=C2C(=O)OC(C)(C)OC2=O)cc1OC` [3h, 5-(3′-methoxy-4′-octyloxybenzylidene)-2,2-dimethyl-1,3-dioxane-4,6-dione], for which the MIC is 64.8 µM (≈ 25.3 µg/mL) in series [8], 31.5 µM (≈ 12.3 µg/mL) in series [9], 14.7 µM (≈ 5.74 µg/mL) in [1] and 54.2 µM (≈ 21.2 µg/mL) in series [10]. For the same molecule, the figures for the “selectivity index (SI)” value in series [2] and in series [6] were 2.9 and 4.3, respectively. The IC50 turned out to be 18.2 ± 0.11 µM in series [2]; 73.5 ± 1.43 µM in [3]; 36.5 ± 0.24 µM in [4] (Homo sapiens, LS174, 72 h); 90.5 ± 0.83 µM in series [5]; 27.4 ± 0.78 µM in series [6]. This molecule returned an IC50 at 72 h in series [7] of 72.8 ± 0.77 µM. Also, the “toxicity towards MRC-5 cell lines (in words)” value in series [11] is listed as “moderate toxicity”.
Consider `COc1cc(C=C2C(=O)OC(C)(C)OC2=O)ccc1OCCOCCOCCO` [3e, 5-(4′-(2″-(2′″-(2″″-hydroxyethoxy)ethoxy)ethoxy)-3′-methoxybenzylidene)-2,2-dimethyl-1,3-dioxane-4,6-dione], for which the minimum inhibitory concentration (MIC) is 80.5 µM (≈ 33 µg/mL) in series [8], 133 µM (≈ 54.6 µg/mL) in series [9], 38.1 µM (≈ 15.6 µg/mL) in [1] and 145 µM (≈ 59.6 µg/mL) in series [10]. Further, the “selectivity index (SI)” value in series [2] was determined as 4.0; in series [6], 2.6. Further, the IC50 in series [2] amounted to 37.3 ± 1.2 µM; in [3], 80.5 ± 2.36 µM; in series [4] (Homo sapiens, LS174, 72 h), 38.1 ± 0.41 µM; in [5], 182 ± 3.94 µM; in [6] it was 25.9 ± 0.46 µM. Also, in series [7], the IC50 at 72 h stood at 111 ± 2.19 µM.
`CC1(C)OC(=O)CC(=O)O1` [Meldrum’s acid]: the pKa in series [12] is 4.9.
For the molecule `CCCCCCCCCCOc1ccc(C=C2C(=O)OC(C)(C)OC2=O)cc1OC` [3i, 5-(4′-decyloxy-3′-methoxybenzylidene)-2,2-dimethyl-1,3-dioxane-4,6-dione], the MIC stood at 41.5 µM (≈ 17.4 µg/mL) in series [8], 29.5 µM (≈ 12.3 µg/mL) in series [9], 12.4 µM (≈ 5.19 µg/mL) in series [1] and 50.9 µM (≈ 21.3 µg/mL) in series [10]. Moreover, the “selectivity index (SI)” value in series [2] came to 4.8. For the same molecule, the IC50 in series [2] turned out to be 15.7 ± 0.28 µM; in [3], 63.7 ± 2.49 µM; in series [4] (72 h) it was 30.5 ± 0.35 µM; in [4] (Homo sapiens, LS174, 72 h), 20.8 µM; in series [5], 58.2 ± 0.74 µM; in series [6], 21.8 ± 0.91 µM. Moreover, the IC50 at 72 h in series [7] was 74.6 ± 1.46 µM. The “toxicity towards MRC-5 cell lines (in words)” value in series [11] is “moderate toxicity”.
For the molecule `CCCCCCCOc1ccc(C=C2C(=O)OC(C)(C)OC2=O)cc1OC` [3g, 5-(4′-heptyloxy-3′-methoxybenzylidene)-2,2-dimethyl-1,3-dioxane-4,6-dione], the minimal inhibitory concentration (MIC) in series [8] came to 37.5 µM (≈ 14.1 µg/mL); in series [9] it was 45.2 µM (≈ 17 µg/mL); in [1], 36.1 µM (≈ 13.6 µg/mL); in [10], 60.4 µM (≈ 22.7 µg/mL). The IC50 in series [3] was found to be 69.5 ± 1.37 µM; in series [4] (Homo sapiens, LS174, 72 h), 47.1 ± 1.69 µM; in [5] it was 94.2 ± 1.09 µM; in [6] it was 35.1 ± 0.27 µM. This molecule displayed an IC50 at 72 h in series [7] of 139 ± 3.07 µM.
On to `[H]/N=C(/N)N[C@H]1[C@H](O)[C@@H](O)[C@H](O[C@@H]2O[C@@H](C)[C@](O)(C=O)[C@H]2O[C@@H]2O[C@@H](CO)[C@H](O)[C@@H](O)[C@@H]2NC)[C@@H](N/C(N)=N\[H])[C@@H]1O` [streptomycin, reference compound], for which the MIC came to 0.003 µM (≈ 0.00174 µg/mL) in series [8], 0.003 µM (≈ 0.00174 µg/mL) in [9], 0.01 µM (≈ 0.00582 µg/mL) in series [1] and 0.005 µM (≈ 0.00291 µg/mL) in [10].
As to `COc1cc(C=C2C(=O)OC(C)(C)OC2=O)ccc1OC(=O)C1CC1` [3c, 2′-methoxy-4′-((2,2-dimethyl-4,6-dioxo-1,3-dioxan-5-ylidene)methyl)phenyl cyclopropanecarboxylate], the minimal inhibitory concentration (MIC) in series [8] was 172 µM (≈ 59.4 µg/mL); in series [9] it was 180 µM (≈ 62.5 µg/mL); in [1] it was 85.1 µM (≈ 29.5 µg/mL); in [10], 206 µM (≈ 71.3 µg/mL). In addition, the IC50 in [2] worked out at 84.6 ± 1.84 µM; in series [3], 70.2 ± 1.68 µM; in [4] (Homo sapiens, LS174, 72 h), 99.6 ± 1.44 µM; in series [5], 172 ± 5.25 µM; in [6] it was 45.7 ± 1.65 µM. The molecule further displayed a half-inhibitory concentration (IC50) at 72 h in series [7] above 200 µM.
As to `CCC(=O)Oc1ccc(C=C2C(=O)OC(C)(C)OC2=O)cc1OC` [3b, 2′-methoxy-4′-((2,2-dimethyl-4,6-dioxo-1,3-dioxan-5-ylidene)methyl)phenyl propionate], the MIC came out at 174 µM (≈ 58.2 µg/mL) in series [8], 175 µM (≈ 58.6 µg/mL) in series [9], 89.5 µM (≈ 29.9 µg/mL) in series [1] and 210 µM (≈ 70.4 µg/mL) in series [10]. The half-inhibitory concentration (IC50) was 102 ± 2.14 µM in series [2]; 74.5 ± 1.73 µM in [3]; 105 ± 4.62 µM in series [4] (Homo sapiens, LS174, 72 h); 153 ± 4.29 µM in [5]; 41.2 ± 1.74 µM in series [6]. For the same molecule, the IC50 at 72 h in [7] was above 200 µM.
As for `CCNC(=O)Nc1cc(-n2cc(Br)cn2)c(C(=O)Nc2cccnc2)cn1` [P3C, 4-(4-bromo-1H-pyrazol-1-yl)-6-[(ethylcarbamoyl)amino]-N-(pyridine-3-yl)pyridine-3-carboxamide], the IC50 in the series with Gyrase B of E. Coli was 0.037 µM.
`COc1ccc(C(=O)Oc2ccc(C=C3C(=O)OC(C)(C)OC3=O)cc2OC)cc1` [3d, 2′-methoxy-4′-((2,2-dimethyl-4,6-dioxo-1,3-dioxan-5-ylidene)methyl)phenyl 4-methoxybenzoate]: the minimal inhibitory concentration (MIC) in series [8] came out at 168 µM (≈ 69.4 µg/mL); in [9] it was 169 µM (≈ 69.7 µg/mL); in series [1], 74.8 µM (≈ 30.8 µg/mL); in series [10], 200 µM (≈ 82.3 µg/mL). Besides, the IC50 in [2] was 94.5 ± 3.15 µM; in series [3] it was 105.1 ± 0.92 µM; in series [4] (Homo sapiens, LS174, 72 h), 118.9 ± 0.95 µM; in series [5], 145 ± 2.92 µM; in [6], 36.2 ± 0.39 µM. The half-inhibitory concentration (IC50) at 72 h in series [7] was above 200 µM.
Turning to `CCCCCCOc1ccc(C=C2C(=O)OC(C)(C)OC2=O)cc1OC` [3f, 5-(4′-hexyloxy-3′-methoxybenzylidene)-2,2-dimethyl-1,3-dioxane-4,6-dione], the MIC in [8] was found to be 42.3 µM (≈ 15.3 µg/mL); in series [9] it was 48.3 µM (≈ 17.5 µg/mL); in series [1], 37.5 µM (≈ 13.6 µg/mL); in series [10] it was 73.9 µM (≈ 26.8 µg/mL). Also, the IC50 stood at 63.5 ± 0.45 µM in series [2]; 71.9 ± 1.65 µM in series [3]; 45.3 ± 0.58 µM in series [4] (Homo sapiens, LS174, 72 h); 110 ± 1.75 µM in series [5]; 39.6 ± 0.74 µM in series [6]. It took 144 ± 2.84 µM to reach half-maximal inhibition in series [7] (IC50 at 72 h).
